Literature values in paper PMC6494845 (Scientific Reports, 2019).

What was measured:
Aβ aggregates = test system: Aβ aggregates; set-up: method as in PMID 17004725; details: compared with curcumin; cited from earlier work
[1] = set-up: method as in PMID 19807070; details: in methanol; cited from earlier work
[2] = set-up: method as in PMID 9278892; details: cell culture medium containing 10% fetal calf serum and human blood, at 1 h; cited from earlier work
HIV-1 protease = test system: HIV-1 protease; set-up: method as in PMID 8087563; details: cited from earlier work
[3] = set-up: method as in PMID 17004725; details: normal mice; cited from earlier work

For `COc1cc(/C=C/C(=O)CC(=O)/C=C/c2ccc(OCCCF)c(OC)c2)ccc1O` [4′-O-fluoropropylcurcumin], the “in vitro binding affinity for Aβ aggregates” value (Aβ aggregates) is listed as “much higher than that of curcumin”.
For curcumin, the emission [1] is listed as 560 nm, the excitation [1] is listed as 510 nm and the “stability (% remaining)” value [2] is listed as > 80%. The IC50 (HIV-1 protease) was 100 µM.
In the case of `COc1cc(/C=C/C(=O)CC(=O)/C=C/c2ccc(OCCC[18F])c(OC)c2)ccc1O` [4′-O-[^18F]fluoropropylcurcumin], the brain permeability [3] is listed as “poor brain permeability”.
